Article PMC6591251, “Discovery of potent necroptosis inhibitors targeting RIPK1 kinase activity for the treatment of inflammatory disorder and cancer metastasis” (Cell Death & Disease, 2019)

Key:
Experiment in all cases: RBC kinase panel
Format in all cases: biochemical
Settings in all cases: ATP 10 μM, Data1, Data2
CAMKK1 = target: T1, CAMKK1 (Homo sapiens, UniProt Q8N5S9)
T1 construct: purchased Reaction Biology Corporation
Description: (§1) PK68 was tested at 1 μM in duplicate against a panel of 369 human kinases at Reaction Biology Corporation. Results are viewed in the human kinome phylogenetic tree.
(§2) ^a Compound PK68 was tested at 1 μM in duplicate against 369 kinases using the RBC kinase panel service of Reaction Biology Corporation. All the ATP concentrations used were 10 μM. […] Full protocol details are available at http://www.reactionbiology.com.

WNK1 = target: T2, WNK1 (Homo sapiens, UniProt Q9H4A3)
T2 construct: purchased Reaction Biology Corporation
Description: as §1, §2

PAK3 = target: T3, PAK3 (Homo sapiens, UniProt O75914)
T3 construct: purchased Reaction Biology Corporation
T3 sequence (O75914 whole entry): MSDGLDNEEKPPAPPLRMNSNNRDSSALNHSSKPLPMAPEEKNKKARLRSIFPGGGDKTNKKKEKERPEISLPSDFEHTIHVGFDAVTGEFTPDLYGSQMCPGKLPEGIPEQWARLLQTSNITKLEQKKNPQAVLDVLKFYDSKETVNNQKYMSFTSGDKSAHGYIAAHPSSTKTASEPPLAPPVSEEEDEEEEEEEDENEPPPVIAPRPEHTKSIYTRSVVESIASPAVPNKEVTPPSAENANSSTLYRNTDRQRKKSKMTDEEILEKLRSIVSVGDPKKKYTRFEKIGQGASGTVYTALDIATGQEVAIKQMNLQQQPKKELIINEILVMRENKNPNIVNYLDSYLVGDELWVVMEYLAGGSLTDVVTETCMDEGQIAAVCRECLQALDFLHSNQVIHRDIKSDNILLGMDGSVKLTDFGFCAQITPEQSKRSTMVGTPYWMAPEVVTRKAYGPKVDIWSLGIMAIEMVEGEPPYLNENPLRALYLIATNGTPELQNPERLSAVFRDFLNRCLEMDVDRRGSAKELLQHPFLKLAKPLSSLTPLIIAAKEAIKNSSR
Description: as §1, §2

MKK7 = target: T4, MKK7 (Homo sapiens, UniProt O14733)
T4 construct: purchased Reaction Biology Corporation
T4 sequence (O14733 whole entry): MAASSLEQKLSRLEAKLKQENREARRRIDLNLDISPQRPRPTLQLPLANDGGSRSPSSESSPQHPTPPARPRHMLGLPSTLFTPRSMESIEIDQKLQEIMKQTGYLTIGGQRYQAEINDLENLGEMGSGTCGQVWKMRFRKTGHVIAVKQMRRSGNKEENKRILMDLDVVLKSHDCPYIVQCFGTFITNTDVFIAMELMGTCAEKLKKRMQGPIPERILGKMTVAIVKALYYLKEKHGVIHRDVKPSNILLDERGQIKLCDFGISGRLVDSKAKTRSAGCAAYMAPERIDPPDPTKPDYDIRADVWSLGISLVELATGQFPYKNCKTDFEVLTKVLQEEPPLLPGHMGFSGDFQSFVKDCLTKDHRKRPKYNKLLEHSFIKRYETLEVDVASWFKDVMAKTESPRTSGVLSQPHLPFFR
Description: as §1, §2

SYK = target: T5, SYK (Homo sapiens, UniProt P43405)
T5 construct: purchased Reaction Biology Corporation
Description: as §1, §2

PKA = target: T6, PKA (Homo sapiens, UniProt P17612)
T6 construct: purchased Reaction Biology Corporation
Description: as §1, §2

RSK1 = target: T7, RSK1 (Homo sapiens, UniProt Q15418)
T7 construct: purchased Reaction Biology Corporation
Description: as §1, §2

TGFBR2 = target: T8, TGFBR2 (Homo sapiens, UniProt P37173)
T8 construct: purchased Reaction Biology Corporation
T8 sequence (P37173 23-567): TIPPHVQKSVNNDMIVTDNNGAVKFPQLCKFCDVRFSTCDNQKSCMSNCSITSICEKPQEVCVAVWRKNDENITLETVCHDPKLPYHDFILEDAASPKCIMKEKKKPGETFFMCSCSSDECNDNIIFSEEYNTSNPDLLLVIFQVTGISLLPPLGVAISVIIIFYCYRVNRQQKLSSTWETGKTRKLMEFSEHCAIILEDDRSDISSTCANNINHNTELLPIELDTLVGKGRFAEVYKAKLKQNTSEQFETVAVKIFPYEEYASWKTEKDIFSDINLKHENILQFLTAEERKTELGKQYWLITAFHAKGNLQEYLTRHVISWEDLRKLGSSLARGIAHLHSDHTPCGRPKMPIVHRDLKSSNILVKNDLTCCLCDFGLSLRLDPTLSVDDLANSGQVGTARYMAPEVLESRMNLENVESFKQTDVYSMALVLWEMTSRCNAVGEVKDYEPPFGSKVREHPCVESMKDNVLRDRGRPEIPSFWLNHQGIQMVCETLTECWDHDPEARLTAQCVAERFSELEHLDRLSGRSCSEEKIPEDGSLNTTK
Description: as §1, §2

PAK6 = target: T9, PAK6 (Homo sapiens, UniProt Q9NQU5)
T9 construct: purchased Reaction Biology Corporation
T9 sequence (Q9NQU5 whole entry): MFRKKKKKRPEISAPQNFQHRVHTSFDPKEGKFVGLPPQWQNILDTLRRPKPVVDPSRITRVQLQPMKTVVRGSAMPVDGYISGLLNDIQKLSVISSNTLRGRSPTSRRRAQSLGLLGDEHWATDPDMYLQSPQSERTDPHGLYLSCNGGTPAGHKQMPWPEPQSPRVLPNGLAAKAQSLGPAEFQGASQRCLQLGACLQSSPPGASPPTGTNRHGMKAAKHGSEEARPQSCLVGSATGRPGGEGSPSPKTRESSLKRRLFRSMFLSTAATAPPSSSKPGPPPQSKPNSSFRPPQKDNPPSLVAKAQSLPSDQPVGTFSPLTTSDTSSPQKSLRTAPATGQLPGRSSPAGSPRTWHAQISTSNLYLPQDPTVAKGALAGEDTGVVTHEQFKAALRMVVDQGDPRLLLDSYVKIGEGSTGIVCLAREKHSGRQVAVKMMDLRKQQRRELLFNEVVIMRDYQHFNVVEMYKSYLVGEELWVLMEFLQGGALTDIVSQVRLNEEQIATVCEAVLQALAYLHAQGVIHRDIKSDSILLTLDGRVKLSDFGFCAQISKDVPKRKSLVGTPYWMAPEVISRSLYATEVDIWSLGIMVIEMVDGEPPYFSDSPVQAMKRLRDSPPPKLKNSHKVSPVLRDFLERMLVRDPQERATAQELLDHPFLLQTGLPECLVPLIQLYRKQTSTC
Description: as §1, §2

TTBK2 = target: T10, TTBK2 (Homo sapiens, UniProt Q6IQ55)
T10 construct: purchased Reaction Biology Corporation
Description: as §1, §2

MEK2 = target: T11, MEK2 (Homo sapiens, UniProt P36507)
T11 construct: purchased Reaction Biology Corporation
Description: as §1, §2

PDK1/PDPK1 = target: T12, PDK1/PDPK1 (Homo sapiens, UniProt O15530)
T12 construct: purchased Reaction Biology Corporation
Description: as §1, §2

CAMK1g = target: T13, CAMK1g (Homo sapiens, UniProt Q96NX5)
T13 construct: purchased Reaction Biology Corporation
Description: as §1, §2

COT1/MAP3K8 = target: T14, COT1/MAP3K8 (Homo sapiens, UniProt P41279)
T14 construct: purchased Reaction Biology Corporation
Description: as §1, §2

LKB1 = target: T15, LKB1 (Homo sapiens, UniProt Q15831)
T15 construct: purchased Reaction Biology Corporation
Description: as §1, §2

MYO3A = target: T16, MYO3A (Homo sapiens, UniProt Q8NEV4)
T16 construct: purchased Reaction Biology Corporation
Description: as §1, §2

TESK2 = target: T17, TESK2 (Homo sapiens, UniProt Q96S53)
T17 construct: purchased Reaction Biology Corporation
Description: as §1, §2

ZAK/MLTK = target: T18, ZAK/MLTK (Homo sapiens, UniProt Q9NYL2)
T18 construct: purchased Reaction Biology Corporation
Description: as §1, §2

TIE2/TEK = target: T19, TIE2/TEK (Homo sapiens, UniProt Q02763)
T19 construct: purchased Reaction Biology Corporation
Description: as §1, §2

CDK19/cyclin C = target: T20, CDK19/cyclin C (Homo sapiens, UniProt Q9BWU1)
T20 construct: purchased Reaction Biology Corporation
T20 sequence (Q9BWU1 whole entry): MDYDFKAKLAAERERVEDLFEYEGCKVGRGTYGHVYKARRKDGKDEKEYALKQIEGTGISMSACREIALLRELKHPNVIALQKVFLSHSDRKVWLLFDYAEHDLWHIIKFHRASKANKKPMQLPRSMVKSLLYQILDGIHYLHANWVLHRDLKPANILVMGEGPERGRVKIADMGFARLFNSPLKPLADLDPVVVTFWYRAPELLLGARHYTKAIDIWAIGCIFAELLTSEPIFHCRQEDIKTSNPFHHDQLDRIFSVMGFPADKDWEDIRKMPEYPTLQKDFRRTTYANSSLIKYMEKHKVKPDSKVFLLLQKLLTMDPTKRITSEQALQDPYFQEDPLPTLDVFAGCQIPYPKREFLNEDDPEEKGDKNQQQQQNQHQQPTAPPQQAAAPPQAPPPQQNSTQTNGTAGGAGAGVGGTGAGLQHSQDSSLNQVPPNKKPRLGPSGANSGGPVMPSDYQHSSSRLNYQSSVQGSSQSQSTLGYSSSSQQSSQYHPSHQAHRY
T20 sequence (P24863 whole entry partner): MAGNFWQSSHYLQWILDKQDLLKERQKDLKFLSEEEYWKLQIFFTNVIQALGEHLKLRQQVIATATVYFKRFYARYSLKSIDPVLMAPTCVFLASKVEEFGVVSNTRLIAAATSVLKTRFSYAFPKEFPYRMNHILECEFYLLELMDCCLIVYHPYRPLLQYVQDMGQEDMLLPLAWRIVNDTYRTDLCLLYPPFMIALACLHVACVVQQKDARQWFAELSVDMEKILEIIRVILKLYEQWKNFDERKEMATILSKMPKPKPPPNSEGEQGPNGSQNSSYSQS
Description: as §1, §2

PASK = target: T21, PASK (Homo sapiens, UniProt Q96RG2)
T21 construct: purchased Reaction Biology Corporation
T21 sequence (Q96RG2 whole entry): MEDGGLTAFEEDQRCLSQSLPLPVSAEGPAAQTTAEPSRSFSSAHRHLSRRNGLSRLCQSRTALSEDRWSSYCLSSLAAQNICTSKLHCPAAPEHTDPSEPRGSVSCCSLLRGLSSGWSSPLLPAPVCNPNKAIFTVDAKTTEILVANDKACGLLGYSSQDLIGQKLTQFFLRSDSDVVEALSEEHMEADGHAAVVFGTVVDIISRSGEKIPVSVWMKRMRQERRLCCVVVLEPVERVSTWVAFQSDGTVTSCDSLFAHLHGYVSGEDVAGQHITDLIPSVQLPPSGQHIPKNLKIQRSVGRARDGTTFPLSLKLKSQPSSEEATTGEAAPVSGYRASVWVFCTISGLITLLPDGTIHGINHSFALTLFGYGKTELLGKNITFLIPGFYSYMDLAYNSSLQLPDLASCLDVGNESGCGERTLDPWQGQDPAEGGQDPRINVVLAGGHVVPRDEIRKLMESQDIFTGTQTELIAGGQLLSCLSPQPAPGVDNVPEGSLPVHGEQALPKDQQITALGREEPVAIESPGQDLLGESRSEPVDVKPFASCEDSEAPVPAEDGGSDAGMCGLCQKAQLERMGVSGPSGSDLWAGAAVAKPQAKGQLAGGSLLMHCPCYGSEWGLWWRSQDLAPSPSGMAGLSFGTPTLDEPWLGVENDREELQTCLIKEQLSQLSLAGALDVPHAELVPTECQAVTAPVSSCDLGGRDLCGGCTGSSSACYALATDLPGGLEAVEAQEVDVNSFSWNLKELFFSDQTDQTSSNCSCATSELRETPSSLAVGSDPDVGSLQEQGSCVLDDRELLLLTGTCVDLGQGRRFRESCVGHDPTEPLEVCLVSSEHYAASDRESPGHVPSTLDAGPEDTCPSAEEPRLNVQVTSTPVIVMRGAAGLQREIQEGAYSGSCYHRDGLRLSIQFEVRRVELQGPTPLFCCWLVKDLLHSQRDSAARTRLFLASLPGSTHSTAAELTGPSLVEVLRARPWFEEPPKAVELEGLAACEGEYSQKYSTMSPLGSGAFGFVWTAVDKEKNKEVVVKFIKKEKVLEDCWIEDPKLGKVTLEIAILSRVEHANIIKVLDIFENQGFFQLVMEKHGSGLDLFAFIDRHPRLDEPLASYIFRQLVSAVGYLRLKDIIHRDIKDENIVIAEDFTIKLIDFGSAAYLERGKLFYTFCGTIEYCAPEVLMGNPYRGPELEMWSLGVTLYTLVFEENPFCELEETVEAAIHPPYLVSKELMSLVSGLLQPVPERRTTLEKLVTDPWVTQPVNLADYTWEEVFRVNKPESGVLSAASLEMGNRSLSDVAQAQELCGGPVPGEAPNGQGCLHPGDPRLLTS
Description: as §1, §2

MLK1/MAP3K9 = target: T22, MLK1/MAP3K9 (Homo sapiens, UniProt P80192)
T22 construct: purchased Reaction Biology Corporation
Description: as §1, §2

STK32B/YANK2 = target: T23, STK32B/YANK2 (Homo sapiens, UniProt Q9NY57)
T23 construct: purchased Reaction Biology Corporation
Description: as §1, §2

ALK2/ACVR1 = target: T24, ALK2/ACVR1 (Homo sapiens, UniProt Q04771)
T24 construct: purchased Reaction Biology Corporation
Description: as §1, §2

RIPK4 = target: T25, RIPK4 (Homo sapiens, UniProt P57078)
T25 construct: purchased Reaction Biology Corporation
Description: as §1, §2

STK16 = target: T26, STK16 (Homo sapiens, UniProt O75716)
T26 construct: purchased Reaction Biology Corporation
Description: as §1, §2

CDK9/cyclin T2 = target: T27, CDK9/cyclin T2 (Homo sapiens, UniProt P50750)
T27 construct: purchased Reaction Biology Corporation
Description: as §1, §2

STK38/NDR1 = target: T28, STK38/NDR1 (Homo sapiens, UniProt Q15208)
T28 construct: purchased Reaction Biology Corporation
Description: as §1, §2

MLK3/MAP3K11 = target: T29, MLK3/MAP3K11 (Homo sapiens, UniProt Q16584)
T29 construct: purchased Reaction Biology Corporation
Description: as §1, §2

FLT4/VEGFR3 = target: T30, FLT4/VEGFR3 (Homo sapiens, UniProt P35916)
T30 construct: purchased Reaction Biology Corporation
Description: as §1, §2

MRCKb/CDC42BPB = target: T31, MRCKb/CDC42BPB (Homo sapiens, UniProt Q9Y5S2)
T31 construct: purchased Reaction Biology Corporation
Description: as §1, §2

PDGFRa = target: T32, PDGFRa (Homo sapiens, UniProt P16234)
T32 construct: purchased Reaction Biology Corporation
Description: as §1, §2

DYRK1/DYRK1A = target: T33, DYRK1/DYRK1A (Homo sapiens, UniProt Q13627)
T33 construct: purchased Reaction Biology Corporation
Description: as §1, §2

T1 sequence (Q8N5S9 whole entry): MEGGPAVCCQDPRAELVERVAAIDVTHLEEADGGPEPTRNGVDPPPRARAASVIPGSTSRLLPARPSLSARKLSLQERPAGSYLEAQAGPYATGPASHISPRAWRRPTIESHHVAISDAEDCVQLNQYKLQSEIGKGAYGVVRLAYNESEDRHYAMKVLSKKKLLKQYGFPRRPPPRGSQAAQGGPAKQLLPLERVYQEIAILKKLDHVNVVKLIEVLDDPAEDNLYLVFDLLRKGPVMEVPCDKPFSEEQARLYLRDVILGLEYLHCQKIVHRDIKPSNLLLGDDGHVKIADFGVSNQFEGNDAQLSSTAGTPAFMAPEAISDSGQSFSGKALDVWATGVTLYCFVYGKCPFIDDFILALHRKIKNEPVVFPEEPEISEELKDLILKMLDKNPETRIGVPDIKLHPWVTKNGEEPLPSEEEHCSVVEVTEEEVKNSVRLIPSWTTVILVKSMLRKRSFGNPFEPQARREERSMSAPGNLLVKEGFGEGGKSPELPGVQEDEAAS

Structure (SMILES): CC(=O)Nc1nc2ccc(-c3cnc(C)c(NC(=O)OC4CCCCC4)c3)cc2s1 [PK68, cyclohexyl (5-(2-acetamidobenzo[d]thiazol-6-yl)-2-methylpyridin-3-yl)carbamate]
- Activity% (CAMKK1; 1 μM): 111.65%
- activity at 1 µM (CAMKK1): 113%
- Activity% (WNK1; 1 μM): 111.38%
- activity at 1 µM (WNK1): 112%
- Activity% (PAK3; 1 μM): 99.63%
- activity at 1 µM (PAK3): 103%
- Activity% (MKK7; 1 μM): 93.03%
- activity at 1 µM (MKK7): 98%
- Activity% (SYK; 1 μM): 98.85%
- activity at 1 µM (SYK): 99.5%
- Activity% (PKA; 1 μM): 105.35%
- activity at 1 µM (PKA): 105%
- Activity% (RSK1; 1 μM): 98.15%
- activity at 1 µM (RSK1): 100%
- Activity% (TGFBR2; 1 μM): 114.72%
- activity at 1 µM (TGFBR2): 115%
- Activity% (PAK6; 1 μM): 92.62%
- activity at 1 µM (PAK6): 93.6%
- Activity% (TTBK2; 1 μM): 98.08%
- activity at 1 µM (TTBK2): 98.4%
- Activity% (MEK2; 1 μM): 97.14%
- activity at 1 µM (MEK2): 97.2%
- Activity% (PDK1/PDPK1; 1 μM): 90.43%
- activity at 1 µM (PDK1/PDPK1): 92.7%
- Activity% (CAMK1g; 1 μM): 92.94%
- activity at 1 µM (CAMK1g): 93%
- Activity% (COT1/MAP3K8; 1 μM): 94.93%
- activity at 1 µM (COT1/MAP3K8): 95.2%
- Activity% (LKB1; 1 μM): 102.07%
- activity at 1 µM (LKB1): 103%
- Activity% (MYO3A; 1 μM): 91.22%
- activity at 1 µM (MYO3A): 92.2%
- Activity% (TESK2; 1 μM): 92.21%
- activity at 1 µM (TESK2): 94.3%
- Activity% (ZAK/MLTK; 1 μM): 66.51%
- activity at 1 µM (ZAK/MLTK): 68.6%
- Activity% (TIE2/TEK; 1 μM): 82.66%
- activity at 1 µM (TIE2/TEK): 83.4%
- Activity% (CDK19/cyclin C; 1 μM): 99.34%
- activity at 1 µM (CDK19/cyclin C): 101%
- Activity% (PASK; 1 μM): 91.47%
- activity at 1 µM (PASK): 93%
- Activity% (MLK1/MAP3K9; 1 μM): 99.64%
- activity at 1 µM (MLK1/MAP3K9): 99.7%
- Activity% (STK32B/YANK2; 1 μM): 106.39%
- activity at 1 µM (STK32B/YANK2): 107%
- Activity% (ALK2/ACVR1; 1 μM): 101.72%
- activity at 1 µM (ALK2/ACVR1): 103%
- Activity% (RIPK4; 1 μM): 92.60%
- activity at 1 µM (RIPK4): 94.5%
- Activity% (STK16; 1 μM): 85.85%
- activity at 1 µM (STK16): 88.2%
- Activity% (CDK9/cyclin T2; 1 μM): 88.23%
- activity at 1 µM (CDK9/cyclin T2): 90.7%
- Activity% (STK38/NDR1; 1 μM): 96.05%
- activity at 1 µM (STK38/NDR1): 98.9%
- Activity% (MLK3/MAP3K11; 1 μM): 82.77%
- activity at 1 µM (MLK3/MAP3K11): 82.9%
- Activity% (FLT4/VEGFR3; 1 μM): 90.37%
- activity at 1 µM (FLT4/VEGFR3): 91%
- Activity% (MRCKb/CDC42BPB; 1 μM): 101.65%
- activity at 1 µM (MRCKb/CDC42BPB): 104%
- Activity% (PDGFRa; 1 μM): 83.70%
- activity at 1 µM (PDGFRa): 84.1%
- Activity% (DYRK1/DYRK1A; 1 μM): 95.93%
- activity at 1 µM (DYRK1/DYRK1A): 97.4%
